The record followed here is patent US20240390301A1, “COMBINATIONS OF PERIPHERAL 5-HT2A RECEPTOR ANTAGONISTS AND CENTRAL 5-HT2A RECEPTOR AGONISTS” (priority 2021, published 2024).

Series [1] in a line: in vivo. Conditions: metabolite after 10 mg/kg SC of parent (sarpogrelate or Compound 14a). As to the method: The pharmacokinetics of peripheral 5-HT2A antagonists were studied in the plasma (Tables 11 and 12) and brains (Table 13 and 14) of rats after subcutaneous (SC) dosing. The results were used to interpret the in vivo pharmacological results.
Animals. Male Sprague Dawley rats, aged 8-12 weeks. were used in these studies. Four rats were housed in each cage. […] Temperature and humidity were recorded by an auto-controlled data logger system. All animals were provided laboratory rodent diet and were fasted for 4 h pre-dose and 2 h post-dose. Reverse osmosis water treated with ultraviolet light was provided ad libitum. Animals were randomly assigned to treatment groups.
Drugs and Drug Administration. Test compounds were prepared as described above or commercially obtained. They were administered subcutaneously (SC) at a dose of 1 or 10 mg/kg (as indicated, calculated based on the free base) and at a volume of 5 mL/kg body weight.
Sample Collection and Bioanalysis. […] SC. […] For both studies, immediately after blood collection, plasma was harvested by centrifugation at 4,000 rpm for 10 min at 4° C. and samples were stored at −70±10° C. until bioanalysis. Following blood collection, animals were immediately sacrificed, the abdominal vena-cava was cut open, and the whole body was perfused from the heart using 10 mL of normal saline, and brain samples were collected from all animals. After isolation, brain samples were rinsed three times in ice-cold normal saline (for 5-10 seconds/rinse using ˜5-10 mL normal saline in disposable petri dish for each rinse) and dried on blotting paper. Brain samples were homogenized using ice-cold phosphate-buffered saline (pH 7.4). Total homogenate volume was three times the tissue weight. All homogenates were stored at −70±10° C. until bioanalysis. For bioanalysis, 25 μL aliquots of plasma/brain study samples or spiked plasma/brain calibration standards were added to individual pre-labeled micro-centrifuge tubes followed by 100 μL of an internal standard solution (glipizide, 500 ng/ml in acetonitrile) except for blanks, where 100 μL of acetonitrile was added. Samples were vortexed for 5 minutes and then centrifuged for 10 minutes at 4,000 rpm at 4° C. Following centrifugation, 100 μL of each clear supernatant was transferred to a 96-well plate and analyzed with a fit-for-purpose LC-MS/MS method, with authentic samples of each analyte used for calibration and identification.

Series [2] is described as follows: in vivo. The format is in vivo, rat. The procedure: The ratio of free brain concentration to free plasma concentration was calculated at 0.167 h and 0.5 h post administration for each compound using the data presented in the above examples and the following formula.
A smaller value for the free brain: free plasma ratio indicates greater peripheral restriction and therefore, better suitability for the methods of the present disclosure.

Series [3] can be described thus: Rat plasma protein binding (equilibrium dialysis). The procedure:
Method 1. Aliquots of 50 μL loading matrix containing test compound (2 μM final incubation concentration) or control compound in triplicate were transferred to a Sample Collection Plate. The samples were matched with opposite blank buffer to obtain a final volume of 100 μL, with a volume ratio of matrix: Dialysis Buffer of 1:1 (v:v) in each well. Stop solution (200 ng/ml tolbutamide and 200 ng/mL labetalol in ACN) was added to these TO samples of test compound and control compound. The plate was sealed and shaken at 800 rpm for 10 min. An aliquot of 100 μL of the loading matrix containing test compound or control compound was transferred to the donor side of each dialysis well in triplicate and 100 μL of the Dialysis Buffer was loaded to the receiver side of the well. Then the plate was rotated at approximately 100 rpm in a humidified incubator with 5% CO2 at 37±1° C. for 4 hours. At the end of the dialysis, aliquots of 50 μL samples from the buffer side and matrix side of the dialysis device were taken into new 96-well plates (Sample Collection Plates). An equal volume of opposite blank matrix (buffer or matrix) in each sample was added to reach a final volume of 100 μL, with volume ratio of matrix: Dialysis Buffer of 1:1 (v:v) in each well. All samples were further processed by protein precipitation before LC-MS/MS analysis.
Method 2. Aliquots (200 μL) of positive controls and test compounds at 5 μM (triplicates) were separately added to the plasma chamber and […] of phosphate buffered saline (pH 7.4) was added to the buffer chamber of the inserts. After sealing the rapid equilibrium dialysis (RED) device with an adhesive film, dialysis was performed in an incubator at 37° C. with shaking at 100 RPM for 4 hours. Aliquots (50 μL) of warfarin and test compounds were added to four 0.5 mL micro fuse tubes. Two aliquots were frozen immediately (0-minute sample). The other two aliquots were incubated at 37° C. for 4 hours along with the RED device. Following dialysis, an aliquot of 50 μL was removed from each well (both plasma and buffer side) and diluted with an equal volume of opposite matrix (dialyzed with the other matrix) to nullify the matrix effect. Similarly, 50 μL of buffer was added to recovery and stability samples. An aliquot of 100 μL was used for LC-MS/MS analysis following protein precipitation with ACN containing internal standard.
On the technique in general: In equilibrium dialysis only unbound substance equilibrates across the membrane.

For series [4] the following is noted: Method 2: 3 times diluted homogenate, 37° C. As to the method: Method 1. Pooled frozen rat brain homogenate was thawed in a water bath at 37° C. prior to the experiment. Using an Apricot automation workstation, 98 μL/well of blank brain homogenate or 100 mM PBS were added to all 96-well reaction plates (Blank, T0, T10, T30, T60, and T120). […] All reaction plates containing mixtures of compound and brain homogenate were incubated at 37° C. in a water bath for up to 120 minutes. At the end of incubation, 500 uL of stop solution (200 ng/mL tolbutamide and 200 ng/mL labetalol in ACN) was added to precipitate protein and mixed thoroughly for 20 minutes at 4° C. After centrifugation at 4,000 rpm and 4° C. for 20 minutes, an Apricot automation workstation was used to transfer 150 μL of supernatant from each reaction plate to its corresponding bioanaylsis plate, which was shaken for 10 minutes prior to LC-MS/MS analysis.
Method 2. Rat brain tissue homogenate samples were prepared by diluting one volume of whole rat brain tissue with two volumes of dialysis buffer (phosphate buffered saline pH 7.4-0.1 M sodium phosphate and 0.15 M sodium chloride) to yield 3 times diluted homogenate. Test compounds were spiked into 400 μL aliquots (n=3) of rat brain homogenate and the resulting mixtures were incubated at 37° C. […] An aliquot (100 μL) of each sample was transferred to a 96-well deep plate and analyzed by LC-MS/MS.

Series [5] is described as follows: Rat plasma stability. The format is in vitro ADME. Conditions: Method 2: 5 μM, 37° C. As to the method:
The results were used to confirm that the plasma protein binding results were not confounded by poor plasma stability.
Method 1. […] Plasma was centrifuged at 4,000 rpm for 5 min and any clots were remove.
Method 2. […]

Series [6] can be described thus: in vitro. Details: fraction unbound at 4 h: dose or concentration left out as unconfirmed. The following applies: rat, brain homogenate. As to the method: Various putative peripheral 5-HT2A receptor antagonists were tested for binding to rat brain homogenate via equilibrium dialysis, with the results summarized in Table 7.
Method 1. Rat brain homogenate was thawed in a water bath at room temperature and then incubated at 37° C. for 10 min before use. Aliquots of 50 μL of loading matrix containing test compound (2 μM final incubation concentration) or control compound in triplicate were transferred to a Sample Collection Plate. The samples were matched with opposite blank buffer to obtain a final volume of 100 μL with a volume ratio of matrix: Dialysis Buffer of 1:1 (v:v) in each well. The stop solution (200 ng/mL tolbutamide and 200 ng/ml labetalol in ACN) was immediately added to these T0 samples of test compound and control compound. The plate was sealed and shaken at 800 rpm for 10 min. T0 samples were stored at 2-8° C. pending further processing along with other post-dialysis samples. An aliquot of 100 μL of the loading matrix containing test compound or control compound was transferred to the donor side of each dialysis well in triplicate and 100 μL of the Dialysis Buffer was loaded to the receiver side of the well. Then the plate was rotated at approximately 100 rpm in a humidified incubator with 5% CO2 at 37±1° C. for 4 hours. At the end of the dialysis. aliquots of 50 μL from the buffer side and matrix side of the dialysis device were taken into new 96-well plates (Sample Collection Plates). An equal volume of opposite blank matrix (buffer or matrix) in each sample was added to reach a final volume of 100 μL, with a volume ratio of matrix: Dialysis Buffer of 1:1 (v:v) in each well. All samples were further processed by protein precipitation before LC-MS/MS analysis.
Method 2. Aliquots (200 μL) of test compounds and positive controls at […] in rat brain homogenate (triplicates) were added to the rapid equilibrium dialysis (RED) chamber of dialysis inserts. A 350 μL aliquot of dialysis buffer was added to the buffer chamber of the inserts. After sealing the RED device with an adhesive film, dialysis was conducted at 37° C. with shaking at 100 RPM for 4 hours. Following dialysis, an aliquot of 50 μL was removed from each well (brain homogenate and buffer) and diluted with an equal volume of opposite matrix to nullify the matrix effect. Similarly, buffer was added to recovery and stability samples. An aliquot of 100 μL was used for LC-MS/MS analysis following protein precipitation with ACN containing internal standard.

The target of series [7] is T1, 5-HT2A receptor (Homo sapiens, UniProt P28223).
T1 construct: WuXi AppTec (Hong Kong) Limited (contract laboratory that ran the assay)
The series can be described thus: 5-HT2A radioligand binding with [3H]ketanserin. The procedure: The binding affinities of key peripheral 5-HT2A receptor antagonists, as well as reference 5-HT2A agonists, at the ketanserin binding site of the 5-HT2A receptor and the mesulergine binding site of the 5-HT2C receptor were determined in radioligand binding experiments.
Method. Affinity of the test compounds for the 5-HT2A and 5-HT2C receptors was determined in radioligand binding experiments with [^3H] ketanserin and [^3H] mesulergine, respectively, by WuXi AppTec (Hong Kong) Limited, using methods adapted from the literature and under conditions described in Table 1.

Series [8] deals with T2, 5-HT2C receptor (Homo sapiens, UniProt P28335).
T2 construct: WuXi AppTec (Hong Kong) Limited (contract laboratory that ran the assay)
T2 sequence (P28335 33-458): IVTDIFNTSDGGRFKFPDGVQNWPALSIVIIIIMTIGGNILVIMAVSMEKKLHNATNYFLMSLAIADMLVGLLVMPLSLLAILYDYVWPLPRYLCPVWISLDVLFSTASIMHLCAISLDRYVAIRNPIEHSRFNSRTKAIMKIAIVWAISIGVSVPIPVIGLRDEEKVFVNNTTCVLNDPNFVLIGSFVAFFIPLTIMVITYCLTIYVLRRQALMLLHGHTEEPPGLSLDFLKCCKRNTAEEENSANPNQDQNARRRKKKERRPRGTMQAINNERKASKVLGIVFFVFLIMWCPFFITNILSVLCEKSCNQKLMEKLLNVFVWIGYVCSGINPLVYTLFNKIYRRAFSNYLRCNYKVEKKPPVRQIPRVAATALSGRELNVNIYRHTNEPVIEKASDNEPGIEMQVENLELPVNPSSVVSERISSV
The series can be described thus: biochemical. Format: binding.

The mark [9] stands for this setting: 10 mg/kg PK data, quantified as metabolite in PK studies of sarpogrelate and Compound 14a.
Setting [10] is: HEK293 stable cell line, 1 nM [3H]ketanserin, 1 h, 25° C., read-out: 5-HT2A Ki (nM) ([3H]ketanserin).
The mark [11] stands for this setting: HEK293 stable cell line, 2 nM [3H]mesulergine, 1 h, 25° C., read-out: 5-HT2C Ki (nM) ([3H]mesulergine).

Read-outs that look alike come from different tables or passages of the source. A value given as a limit tells only on which side of the number the result lay.

T1 sequence (P28223 whole entry): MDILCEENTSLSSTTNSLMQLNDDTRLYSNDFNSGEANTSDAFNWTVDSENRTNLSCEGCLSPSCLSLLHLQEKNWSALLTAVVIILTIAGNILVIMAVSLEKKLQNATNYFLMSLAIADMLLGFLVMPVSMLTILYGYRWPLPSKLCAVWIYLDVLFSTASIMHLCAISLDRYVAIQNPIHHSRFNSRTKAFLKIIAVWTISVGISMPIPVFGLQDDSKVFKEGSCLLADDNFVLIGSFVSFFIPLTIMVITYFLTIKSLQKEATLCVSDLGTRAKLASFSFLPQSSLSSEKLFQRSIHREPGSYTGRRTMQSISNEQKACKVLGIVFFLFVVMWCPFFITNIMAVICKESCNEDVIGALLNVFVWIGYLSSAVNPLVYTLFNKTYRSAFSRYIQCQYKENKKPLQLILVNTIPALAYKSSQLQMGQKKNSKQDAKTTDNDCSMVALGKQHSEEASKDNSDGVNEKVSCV

Regarding `COc1cccc(CCc2ccccc2OCC(O)CN(C)C)c1` (stereo not drawn) [sarpogrelate M1], in series [1] (0.167 h), the “Mean brain concentration 0.167 h (ng/g), analyzed as metabolite” value was 32.7 ng/g. In series [1] (0.5 h), the “Mean brain concentration 0.5 h (ng/g), analyzed as metabolite” value is on record as 97.4 ng/g. Also, the “Mean plasma concentration 0.167 h (ng/mL), analyzed as metabolite” value in series [1] (plasma, 0.167 h) is on record as 54.1 ng/mL. For the same compound, in series [1] (plasma, 0.5 h), the “Mean plasma concentration 0.5 h (ng/mL), analyzed as metabolite” value came out at 63.6 ng/mL. In addition, in series [2] (setting [9]), the “Free Brain:Free Plasma (0.167 h), metabolite” value is 0.52 and the “Free Brain:Free Plasma (0.5 h), metabolite” value is recorded as 1.31. Moreover, the “Peripheral restriction / brain penetration” value in series [2] (from free brain:free plasma ratios) is recorded as “substantial brain penetration”. In addition, the “Mean % bound (rat plasma protein binding)” value in series [3] (Method 2: RED, 5 μM, 4 hours, 37° C.) is listed as 97.2%. The “% Remaining (120 minutes), rat brain homogenate” value in series [4] amounted to 84%. Further, in series [5], the “% Remaining (120 minutes), rat plasma” value is 94%.

In the case of `CC(C)COc1ccc(CNC(=O)N(Cc2ccc(F)cc2)C2CCNCC2)cc1.Cl` [Compound 7, 1-(4-fluorobenzyl)-3-(4-isobutoxybenzyl)-1-(piperidin-4-yl)urea hydrochloride], in series [1] (0.167 h), the “Mean brain concentration 0.167 h (ng/g), analyzed as metabolite” value is given as “BLQ”. The “Mean brain concentration 0.5 h (ng/g), analyzed as metabolite” value in series [1] (0.5 h) was “BLQ”. Besides, in series [3] (rat, plasma, pH 7.4), the fraction unbound at 4 h, 5 μM was 0.038. The “% Remaining (120 minutes), rat brain homogenate” value in series [4] turned out to be 69%. For the same compound, the “% Remaining (120 minutes), rat plasma” value in series [5] stood at 96%. This compound showed a fraction unbound at 4 h in series [6] of 0.002.

With `CCCc1cc(OC)c(CC(C)N)cc1OC` (stereo not drawn) [DOPR, 2,5-dimethoxy-4-propylamphetamine], the Ki is 17.6 nM in series [7] (setting [10]) and 16.6 nM in series [8] (setting [11]).

For `COc1cc(CCN)cc(OC)c1OC` [mescaline], the Ki in series [7] (setting [10]) is 17400 nM; in series [8] (setting [11]), more than 1880 nM.

The compound `CCN(C)CCc1c[nH]c2cccc(O)c12` [Compound 4-HO-MET, 4-hydroxy-N-methyl-N-ethyltryptamine] came in with a Ki in series [7] of 106 nM.

Turning to `COc1cc(CC(C)N)c(OC)cc1I` (stereo not drawn) [DOI, 4-iodo-2,5-dimethoxyamphetamine], the Ki in series [8] was determined as 70 nM.

In the case of `CCN(C)CCc1c[nH]c2ccc(F)cc12` [Compound 5-F-MET, 5-fluoro-N-methyl-N-ethyltryptamine], the inhibitory constant (Ki) in series [7] stood at 140 nM; in series [8] (setting [11]), 59 nM.

One may read the fraction unbound as free concentration divided by total concentration. One may read the Ki as the dissociation constant of the complex between target and ligand, obtained from inhibition or displacement.
